Results on two compounds are retold here after publication PMC4767465, “NF-κB drives acquired resistance to a novel mutant-selective EGFR inhibitor” (Oncotarget, 2015).

Like-named read-outs stand apart in the source and are kept apart here.

The target in one experiment is EGFR-L858R/T790M (Homo sapiens, UniProt P00533, L858R/T790M). The experiment is described as follows: radiometric HotSpot recombinant kinase assay, […] compound, […] ATP; about […] inhibition. It is filed as biochemical.
Experiment [1] concerns the target EGFR (Homo sapiens, UniProt P00533, DEL746-750). The experiment is described as follows: EGFR phosphorylation in PC9 and HCC-827 cells, […] h treatment. It is filed as cell-based.
Another experiment relates to SW1573. The experiment is described as follows: cells. Also noted: anti-proliferative effect in NSCLC cell lines, 50% growth inhibition concentration (GI50). The following applies: Homo sapiens, SW1573. From the text:
(§1) The exceptional activity of the inhibitor in EGFR-T790M cells was further confirmed in three-dimensional tumor spheroids derived from NCI-H1975 cells. […] Furthermore, increase of cellular fragments in Sub-G1 phase, chromatin condensation and nuclear fragmentation were observed after treatment with the EGFR-TKI (Supplementary Figure 3A). […] The human NSCLC cell lines A549, Calu-1, Calu-6, NCI-H460, NCI-H292, NCI-H1299, NCI-H1730, NCI-H23, NCI-H3255, NCI-H520, NCI-H522, NCI-H596, HCC-827, SKMES-1, SW1573 and NCI-H1975 and the human epidermoid carcinoma A431 cells were purchased from ATCC (Manassas, VA), and cultured as recommended. 293H cells were purchased from Invitrogen (Carlsbad, CA). PC9, PC9GR4, PC9DR1 and HCC-827 GR5 were a kind gift of Dr. Pasi A. Jänne, Harvard University, Boston, MA [13]. PC9/ER, HCC-827/R1 and H3255/XLR cells are isogenic erlotinib- or XL-647-resistant lines derived from PC9, HCC-827 and NCI-H3255 cells, respectively, as previously described. Additional information on cell cultures procedures is reported in the Supplemental Methods.

A further experiment relates to NCI-H520. Description: cells. The following applies: Homo sapiens, NCI-H520; read-out: CNX-2006 GI50. The arrangement: anti-proliferative effect in NSCLC cell lines, 50% growth inhibition concentration (GI50).
Text: as §1

The subject of another experiment is Calu-1. The experiment is described as follows: cells. The arrangement: anti-proliferative effect in NSCLC cell lines, 50% growth inhibition concentration (GI50). The following applies: Homo sapiens, Calu-1.
Text: as §1

The next experiment concerns NCI-H3255. The experiment is described as follows: cells. Also noted: anti-proliferative effect in NSCLC cell lines, 50% growth inhibition concentration (GI50). The note with it: Homo sapiens, NCI-H3255.
Text: as §1

The test system of a further experiment is NCI-H1975. The experiment is described as follows: cells. The arrangement: anti-proliferative effect in NSCLC cell lines, 50% growth inhibition concentration (GI50). The note with it: Homo sapiens, NCI-H1975; read-out: CNX-2006 GI50.
Text: as §1

The subject of the next experiment is NCI-H1299. The experiment is described as follows: cells. The arrangement: anti-proliferative effect in NSCLC cell lines, 50% growth inhibition concentration (GI50). The following applies: Homo sapiens, NCI-H1299; read-out: CNX-2006 GI50.
Text: as §1

Another experiment deals with A549. The experiment is described as follows: cells. Also noted: anti-proliferative effect in NSCLC cell lines, 50% growth inhibition concentration (GI50). The following applies: Homo sapiens, A549.
Text: as §1

A further experiment concerns Calu-6. The experiment is described as follows: cells. The following applies: Homo sapiens, Calu-6; read-out: CNX-2006 GI50. The arrangement: anti-proliferative effect in NSCLC cell lines, 50% growth inhibition concentration (GI50).
Text: as §1

A further experiment relates to PC9. Description: cells. Also noted: anti-proliferative effect in NSCLC cell lines, 50% growth inhibition concentration (GI50). The following applies: Homo sapiens, PC-9.
Text: as §1

The next experiment concerns NCI-H460. The experiment is described as follows: cells. The arrangement: anti-proliferative effect in NSCLC cell lines, 50% growth inhibition concentration (GI50). The note with it: Homo sapiens, NCI-H460.
Text: as §1

In a further experiment the test system is NCI-H292. Description: cells. The following applies: Homo sapiens, NCI-H292; read-out: CNX-2006 GI50. Also noted: anti-proliferative effect in NSCLC cell lines, 50% growth inhibition concentration (GI50).
Text: as §1

The next experiment concerns NCI-H596. The experiment is described as follows: cells. The following applies: Homo sapiens, NCI-H596. Also noted: anti-proliferative effect in NSCLC cell lines, 50% growth inhibition concentration (GI50).
Text: as §1

The next experiment has as its system NCI-H23. The experiment is described as follows: cells. Also noted: anti-proliferative effect in NSCLC cell lines, 50% growth inhibition concentration (GI50). The following applies: Homo sapiens, NCI-H23; read-out: CNX-2006 GI50.
Text: as §1

A further experiment deals with NCI-H522. Description: cells. The arrangement: anti-proliferative effect in NSCLC cell lines, 50% growth inhibition concentration (GI50). The note with it: Homo sapiens, NCI-H522; read-out: CNX-2006 GI50.
Text: as §1

In another experiment the test system is NCI-H1703. Description: cells. Also noted: anti-proliferative effect in NSCLC cell lines, 50% growth inhibition concentration (GI50). The following applies: Homo sapiens, NCI-H1703; read-out: CNX-2006 GI50.
Text: as §1

Another experiment relates to SKMES-1. The experiment is described as follows: cells. The arrangement: anti-proliferative effect in NSCLC cell lines, 50% growth inhibition concentration (GI50). The note with it: Homo sapiens, SK-MES-1; read-out: CNX-2006 GI50.
Text: as §1

The subject of a further experiment is HCC-827. Description: cells. Also noted: anti-proliferative effect in NSCLC cell lines, 50% growth inhibition concentration (GI50). The following applies: Homo sapiens, HCC827.
Text: as §1

A further experiment addresses WT-EGFR (Homo sapiens, UniProt P00533). Description: radiometric HotSpot recombinant kinase assay, […] compound, […] ATP. It is filed as biochemical.
Experiment [2] concerns the target EGFR (Homo sapiens, UniProt P00533, DEL746-750/T790M). The experiment is described as follows: EGFR phosphorylation in PC9GR4 cells, […] h treatment. It is filed as cell-based.
For experiment [3], the target named is EGFR (Homo sapiens, UniProt P00533, T790M). The experiment is described as follows: EGFR phosphorylation in transfected […] cells. It is filed as cell-based.
The next experiment has as its target T1, Chk2 (Homo sapiens, UniProt O96017).
T1 construct: gene CHEK2
The experiment is described as follows: radiometric HotSpot recombinant kinase assay, […] compound, […] ATP. It is filed as biochemical.

T1 sequence (O96017 whole entry): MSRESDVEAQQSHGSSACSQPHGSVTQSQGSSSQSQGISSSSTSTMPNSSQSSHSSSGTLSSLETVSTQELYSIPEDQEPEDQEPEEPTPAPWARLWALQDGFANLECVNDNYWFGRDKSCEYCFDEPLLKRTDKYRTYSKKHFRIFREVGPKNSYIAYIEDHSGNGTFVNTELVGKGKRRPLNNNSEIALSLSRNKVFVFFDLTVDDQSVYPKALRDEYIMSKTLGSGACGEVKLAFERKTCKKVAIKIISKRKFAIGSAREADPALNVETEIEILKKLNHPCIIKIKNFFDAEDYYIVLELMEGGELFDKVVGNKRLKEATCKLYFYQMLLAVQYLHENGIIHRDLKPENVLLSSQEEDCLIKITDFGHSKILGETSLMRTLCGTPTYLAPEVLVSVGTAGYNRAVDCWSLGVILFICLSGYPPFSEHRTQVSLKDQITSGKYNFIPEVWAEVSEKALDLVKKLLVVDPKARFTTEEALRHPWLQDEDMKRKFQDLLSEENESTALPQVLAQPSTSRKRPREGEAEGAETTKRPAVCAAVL

As to `C=CC(=O)Nc1cccc(Nc2nc(Nc3ccc(NC4CN(CCF)C4)cc3OC)ncc2C(F)(F)F)c1` [CNX-2006], the inhibition at 1 µM at EGFR-L858R/T790M is ~96%; at WT-EGFR it was > 50%; at Chk2, > 50%. Also, the half-inhibitory concentration (IC50) on EGFR [1] is 55 to 104 nM; at EGFR [2], ~61 nM. Besides, the GI50 in the experiment on SW1573 (read-out: CNX-2006 GI50) turned out to be 1900 ± 200 nM; with NCI-H520, 5.2 ± 0.4 µM; with Calu-1 (read-out: CNX-2006 GI50) it was 8 ± 0.3 µM; in the experiment with NCI-H3255 (read-out: CNX-2006 GI50) it was 6 ± 2 nM; in the experiment on NCI-H1975, 72 ± 2 nM; in the experiment on NCI-H1299 it was 4.5 ± 0.5 µM. The GI50 is 2700 ± 100 nM in the experiment on A549 (read-out: CNX-2006 GI50); 3.2 ± 0.3 µM with Calu-6; 9 ± 1 nM in the experiment on PC9 (read-out: CNX-2006 GI50); 5 ± 0.6 µM with NCI-H460 (read-out: CNX-2006 GI50); 340 ± 40 nM with NCI-H292; 4.2 ± 0.3 µM in the experiment on NCI-H596 (read-out: CNX-2006 GI50). Moreover, the GI50 in the experiment on NCI-H23 was 2400 ± 300 nM; with NCI-H522, 1900 ± 400 nM; in the experiment with NCI-H1703 it was 4.3 ± 0.3 µM; with SKMES-1, 1400 ± 100 nM; in the experiment with HCC-827 (read-out: CNX-2006 GI50) it was 3 ± 2 nM. On EGFR [3], the “EGFR phosphorylation in transfected 293H cells” value was “CNX-2006 effectively inhibited the phosphorylation of the receptor at low nanomolar concentrations”.

Take `C=CC(=O)Nc1cccc(Nc2nc(Nc3ccc(N4CCN(C(C)=O)CC4)cc3OC)ncc2C(F)(F)F)c1` [CO-1686]: the GI50 is 1100 ± 100 nM in the experiment with SW1573 (read-out: CO-1686 GI50); 2 ± 0.3 µM in the experiment on Calu-1 (read-out: CO-1686 GI50); 5 ± 2 nM with NCI-H3255 (read-out: CO-1686 GI50); 1200 ± 200 nM with A549 (read-out: CO-1686 GI50); 4 ± 2 nM with PC9 (read-out: CO-1686 GI50); 2.3 ± 0.2 µM with NCI-H460 (read-out: CO-1686 GI50). The figures for the 50% growth inhibitory concentration (GI50) in the experiment with NCI-H596 (read-out: CO-1686 GI50) and with HCC-827 (read-out: CO-1686 GI50) were 2 ± 0.1 µM and 2 ± 1 nM, respectively.
